1 compound from paper PMC11943435, “Functional Investigation of the Receptor to the Major Pheromone Component in the C-Strain and the R-Strain of the Fall Armyworm Spodoptera frugiperda” (Insects, 2025) can be followed below.

This assay has as its target T1, C-SfruOR13 (SfruOR13 from the C-strain) (Spodoptera frugiperda, UniProt A0A9R0CXR4).
T1 construct: gene LOC118264496; full-length ORF (435 residues), synthesized, pUAST.attB; expressed in Drosophila at1 trichoid OSNs (Or67d-GAL4) replacing OR67d; Orco is that of the fly host; with Odorant receptor coreceptor (endogenous, Drosophila melanogaster)
T1 sequence (A0A9R0CXR4 1-435): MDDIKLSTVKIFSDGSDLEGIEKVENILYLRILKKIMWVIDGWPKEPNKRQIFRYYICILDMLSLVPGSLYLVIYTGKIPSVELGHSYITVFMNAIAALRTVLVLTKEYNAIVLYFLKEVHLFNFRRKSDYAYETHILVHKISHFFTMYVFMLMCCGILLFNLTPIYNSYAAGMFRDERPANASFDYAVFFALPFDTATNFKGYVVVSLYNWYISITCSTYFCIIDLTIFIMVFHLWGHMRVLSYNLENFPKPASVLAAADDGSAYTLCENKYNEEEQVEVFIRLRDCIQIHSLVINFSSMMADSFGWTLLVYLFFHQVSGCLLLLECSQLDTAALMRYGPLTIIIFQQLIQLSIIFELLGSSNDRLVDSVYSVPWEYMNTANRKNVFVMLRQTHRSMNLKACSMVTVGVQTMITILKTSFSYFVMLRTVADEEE
T1 sequence (Q9VNB5 1-486 partner): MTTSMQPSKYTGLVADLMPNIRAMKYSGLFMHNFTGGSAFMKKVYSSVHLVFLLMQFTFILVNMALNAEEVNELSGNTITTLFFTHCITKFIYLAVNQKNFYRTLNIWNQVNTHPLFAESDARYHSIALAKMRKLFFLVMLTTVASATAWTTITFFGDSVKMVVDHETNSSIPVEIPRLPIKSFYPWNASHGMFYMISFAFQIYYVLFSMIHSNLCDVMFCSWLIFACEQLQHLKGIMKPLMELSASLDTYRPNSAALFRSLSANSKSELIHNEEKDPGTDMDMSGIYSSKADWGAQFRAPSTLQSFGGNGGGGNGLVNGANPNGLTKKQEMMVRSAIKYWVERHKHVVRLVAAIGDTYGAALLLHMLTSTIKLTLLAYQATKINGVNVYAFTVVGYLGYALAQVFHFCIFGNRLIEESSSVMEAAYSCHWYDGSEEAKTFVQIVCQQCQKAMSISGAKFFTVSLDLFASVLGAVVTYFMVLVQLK
As to the kind of experiment: single-sensillum recording, Drosophila at1 OSNs, dose-response. It counts as cell-based. The following applies: agonist; vapour stimulus, 10 ng to 10 µg loaded on filter paper in hexane.

Take `CCCC/C=C\CCCCCCCCOC(C)=O` [(Z)-9-14:OAc, (Z)-9-tetradecenyl acetate]: the “single-sensillum recording, Drosophila at1 OSNs, dose-response” value was “C-SfruOR13 was significantly activated by the same three compounds that elicited a response in R-SfruOR13”.
